From US8846671B2, “Heterocyclic alkynyl benzene compounds and medical compositions and uses thereof” (Guangzhou Institute of Biomedicine and Health, Chinese …, priority 2010, dated 2014)
pIC50: −log10 of the molar value. Where a name gives a salt, the structure may show the parent alone. Read-outs that look alike come from different tables or passages of the source.

Columns and labels:
[1] = test system: K562 (human chronic myelogenous leukemia cell line); experiment: tumor cell proliferation, MTT or CCK8 assay, 72 h incubation; type: cell-based; settings: K562, 72 h, read-out: IC50 on tumor cell proliferation, K562; for IC50: MTT or CCK8, nM
Procedure: (§1) The heterocyclic alkynyl benzene compounds at different concentrations (1×10^−10˜1×10^−5M) were incubated for 72 hours individually applied to 6 cell lines K562 (human CML cell line), MOLT-4 (human ALL cell line), U937 (human CML cell line), MEG-01 (human CML cell line), L78 (human lung cancer cell line), Ba/F3-T315I (mice Pro-B cells transformed with Bcr-AblT315I and STI57′-resistant cell line). After incubation for 72 hrs, cell proliferation was then determined by MTT assay or CCK8 assay, and 4 hr incubation is further conducted, the absorbance at 570 nm (CCK8, 450 nm, 650 nm) was measured using enzyme Microplate Reader. […] Based on the inhibition potency of the heterocyclic alkynyl benzene compounds on the cell proliferation, IC50 values were calculated and summarized in the Table 1 and Table 2 (The compounds used were synthesized by Examples 1-40, and the compounds are marked with Drug No. series in Table 1).

[2] = test system: MEG-01 (Human megakaryoblastic leukaemia cell line); experiment: as above; type: cell-based; settings: MEG-01, 72 h, read-out: IC50 on tumor cell proliferation, MEG-01; for IC50: MTT or CCK8, nM
Procedure: as §1

U937 Cell line = experiment: as above; type: cell-based; settings: Homo sapiens, read-out: IC50 on tumor cell proliferation, U937; for IC50: U-937, 72 h, MTT or CCK8, nM; for pIC50: U-937, 72 h
Procedure: as §1

[3] = test system: MOLT-4 (Human acute lymphoblastic leukemia cell line); experiment: as above; type: cell-based; settings: MOLT-4, 72 h, read-out: IC50 on tumor cell proliferation, MOLT-4; for IC50: MTT or CCK8, nM
Procedure: as §1

[4] = test system: K562R cells (imatinib-resistant cell line); experiment: as above; type: cell-based; settings: Homo sapiens, K-562R, read-out: IC50 on tumor cell proliferation, K562R cells
[5] = target: BAF3-T315I cells (Ba/F3 cell line stably expressing BCR/ABL T315I) (Homo sapiens, UniProt P00519, T315I, cells depend on it); experiment: as above; type: cell-based, mice
Procedure: The heterocyclic alkynyl benzene compounds at different concentrations (1×10^−10˜1×10^−5M) were incubated for 72 hours individually applied to 6 cell lines K562 (human CML cell line), MOLT-4 (human ALL cell line), U937 (human CML cell line), MEG-01 (human CML cell line), L78 (human lung cancer cell line), Ba/F3-T315I (mice Pro-B cells transformed with Bcr-AblT315I and STI57′-resistant cell line). After incubation for 72 hrs, cell proliferation was then determined by MTT assay or CCK8 assay, and 4 hr incubation is further conducted, the absorbance at 570 nm (CCK8, 450 nm, 650 nm) was measured using enzyme Microplate Reader.

[6] = Pharmacokinetics and bioavailability in rats; type: in vivo; settings: SD rats; corresponding pharmaceutical acceptable salt forms
Procedure: Pharmacokinetics and bioavailability in rats. […] The blood samples were collected at the proper time points after administration, add heparin-anticoagulant, and the supernatants of the blood samples were collected (3000 rpm, 10 min) and stored at -20° C. for HPLC-MS analysis. After protein-precipitation procedure with acetonitrile, supernatants were collected after 3000 rpm, 10 min for analysis with HPLC-MS. The data were analyzed with software DAS2.0 to separately acquire the parameters of compartment models and non-compartment models. The bioavailability was calculated according to AUC data.

[7] = test system: K562 cells (human CML cell line expressing native Bcr-Abl); experiment: Xenograft model of K562 in nude mice, oral dosing
Procedure: Tumor volume and body weight were monitored once every 2 days (In each group, the tumor volume and body weight at beginning of the day were recorded). Tumor volume was calculated as […]*a*b*b.L×W2/2 (a and b are the length and width of the tumor, respectively). […] The results were shown in Drawings as FIGS. 1, 2, 3, 4, 5, 6, 7 and 8.

[8] = Ba/F3 expressing BCR/ABL T315I, 72 h, Table 1; read-out: IC50 on tumor cell proliferation, BAF3-T315I cells
[9] = read-out: IC50 on tumor cell proliferation, BAF3-T315I cells; Ba/F3 expressing BCR/ABL T315I, 72 h, Table 1

With `Cc1cn(-c2cc(NC(=O)c3ccc(C)c(C#Cc4cnc5nccn5c4)c3)cc(C(F)(F)F)c2)cn1` [D799, 3-(2-(imidazo[1,2-a]pyrimidin-6-yl)ethynyl)-4-methyl-N-(3-(4-methyl-1H-imidazol-1-yl)-5-(trifluoromethyl)phenyl)benzamide] the IC50 [1] was 36.2 nM, the IC50 [2] was over 100 nM and the IC50 (U937 Cell line) was over 100 nM. It also gave an IC50 [3] of over 100 nM, a pIC50 ([4]; imatinib-resistant K562R) of 6.21 and a GI50 [5, 8] of over 10000 nM.

`Cc1ncn(-c2cc(NC(=O)c3ccc(C)c(C#Cc4cnc5ccnn5c4)c3)cc(C(F)(F)F)c2)n1` [D818, 4-methyl-N-(3-(3-methyl-1H-1,2,4-triazol-1-yl)-5-(trifluoromethyl)phenyl)-3-(2-(pyrazolo[1,5-a]pyrimidin-6-yl)ethynyl)benzamide] showed an IC50 [1] of 1.38 nM, an IC50 [2] of 210 nM and an IC50 (U937 Cell line) of over 100 nM. For the same molecule, the IC50 [3] was over 100 nM, the pIC50 ([4]; imatinib-resistant K562R) was 6.85 and the GI50 [5, 8] was 394 nM.

`CNc1ncc(C#Cc2cc(C(=O)Nc3cc(-n4cnc(C)c4)cc(C(F)(F)F)c3)ccc2C)cn1` [D800, 4-methyl-N-(3-(4-methyl-1H-imidazol-1-yl)-5-(trifluoromethyl)phenyl)-3-(2-(2-(methylamino)pyrimidin-5-yl)ethynyl)benzamide] showed a pIC50 [1] of 8.96, a pIC50 [2] of under 7.00 and a pIC50 (U937 Cell line) of under 7.00. The pIC50 [3] was under 7.00, the pIC50 [4] was 7.05 and the GI50 [5, 9] was 99.8 nM. For the same molecule, the “pharmacokinetics parameters, overall judgement” value [6] was “adequate pharmacokinetics parameters”.

`Cc1cn(-c2cc(NC(=O)c3ccc(C)c(C#Cc4cnc(N5CCCCC5)nc4)c3)cc(C(F)(F)F)c2)cn1` [D797, 4-methyl-N-(3-(4-methyl-1H-imidazol-1-yl)-5-(trifluoromethyl)phenyl)-3-(2-(2-(piperidin-1-yl)pyrimidin-5-yl)ethynyl)benzamide] gave a pIC50 [1] of under 7.00, a pIC50 [2] of under 7.00 and a pIC50 (U937 Cell line) of under 7.00. For the same molecule, the pIC50 [3] was under 8.00, the pIC50 [4] was 5.47 and the GI50 [5, 9] was 13000 nM.

For `Cc1cn(-c2cc(NC(=O)c3ccc(C)c(C#Cc4cnc(NCCO)nc4)c3)cc(C(F)(F)F)c2)cn1` [D820, 3-(2-(2-(2-hydroxyethylamino)pyrimidin-5-yl)ethynyl)-4-methyl-N-(3-(4-methyl-1H-imidazol-1-yl)-5-(trifluoromethyl)phenyl)benzamide], the pIC50 [1] was 8.86, the pIC50 [2] was under 7.00 and the pIC50 (U937 Cell line) was under 7.00. The pIC50 [3] was 6.87, the pIC50 [4] was 7.45 and the GI50 [5, 9] was 276 nM.

With `CNc1ncc(C#Cc2cc(C(=O)Nc3cc(-n4cnc(C)c4)cc(C(F)(F)F)c3)ccc2C)cn1` [D800 mesylate, 4-methyl-N-(3-(4-methyl-1H-imidazol-1-yl)-5-(trifluoromethyl)phenyl)-3-(2-(2-(methylamino)pyrimidin-5-yl)ethynyl)benzamide] the “effect on tumor growth” value ([7]; 25 mg/kg po qd) was “completely inhibit the tumor growth” and the “effect on body weight” value ([7]; po, qd) was “did not cause the body weight loss”.

With `CCN(CC)c1ncc(C#Cc2cc(C(=O)Nc3cc(-n4cnc(C)c4)cc(C(F)(F)F)c3)ccc2C)cn1` [D807, 3-(2-(2-(diethylamino)pyrimidin-5-yl)ethynyl)-4-methyl-N-(3-(4-methyl-1H-imidazol-1-yl)-5-(trifluoromethyl)phenyl)benzamide] the IC50 [1] was 128 nM, the IC50 [2] was over 100 nM and the IC50 (U937 Cell line) was 126 nM. The IC50 [3] was over 100 nM, the pIC50 ([4]; imatinib-resistant K562R) was 4.85 and the GI50 [5, 8] was 13400 nM.
